We go through 31 molecules from patent publication US9586963B2 (GENFIT, priority 2011, dated 2017).

As usually defined, the EC50 is the concentration giving half of the maximal effect. A high value points to lower potency in that assay. By melting point is commonly meant the temperature, or range, at which the solid turns liquid.

The target in one series is T1, Rev-Erb alpha (Homo sapiens, UniProt P20393).
T1 sequence (P20393 284-614 limits assumed): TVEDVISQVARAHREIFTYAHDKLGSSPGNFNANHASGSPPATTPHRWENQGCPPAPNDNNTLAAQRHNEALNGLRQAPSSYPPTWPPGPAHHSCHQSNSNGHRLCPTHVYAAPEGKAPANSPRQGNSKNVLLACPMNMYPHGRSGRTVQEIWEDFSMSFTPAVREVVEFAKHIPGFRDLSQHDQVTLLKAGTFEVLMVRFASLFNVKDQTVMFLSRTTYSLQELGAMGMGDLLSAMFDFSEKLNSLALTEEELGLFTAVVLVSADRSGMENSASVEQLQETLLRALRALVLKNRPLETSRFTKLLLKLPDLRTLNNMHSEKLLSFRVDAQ
In words: M2H (mammalian two-hybrid) cellular activation assay of Rev-Erb alpha. As to conditions: M2H assay, HEK293 cells; for EC50: Gal4-Rev-Erb alpha / VP16-NCoR, luciferase reporter. The series is classed as cell-based. The method in brief: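 Six-point dose-response, 18 h, 37 °C, serum-free, in HEK293 cells carrying a Gal4-RE luciferase reporter with Gal4-Rev-Erb alpha or beta plus VP16-NCoR (corepressor interaction readout). EC50 and TOP activation (%) derived from luminescence across four experiments.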
Background: In a reporter assay the amount or activity of a reporter protein is the signal.

Molecule `Fc1cc(Oc2ccc3nnc(Cl)n3n2)c(-c2ccccc2)cc1F` [Cpd.4-26, 6-(4,5-difluoro-biphenyl-2-yloxy)-3-chloro-[1,2,4]triazolo[4,3-b]pyridazine] registered a melting point of 125.6 °C. Besides, the EC50 on Rev-Erb alpha lay within 100 to 1000 nM.
On to `Cc1ccc(Oc2ccc3nnc(Cl)n3n2)c(-c2ccccc2)c1` [Cpd.4-27, 6-(5-methyl-biphenyl-2-yloxy)-3-chloro-[1,2,4]triazolo[4,3-b]pyridazine], for which the melting point worked out at 144.5 °C. At Rev-Erb alpha, this molecule showed a half-maximal effective concentration (EC50) of less than 100 nM.
`Fc1cccc(-c2ccc(F)cc2Oc2ccc3nnc(Cl)n3n2)c1` [Cpd.4-30, 6-(3′-fluoro-4-fluoro-biphenyl-2-yloxy)-3-chloro-[1,2,4]triazolo[4,3-b]pyridazine] showed a melting point of 123.4 °C. Further, the EC50 at Rev-Erb alpha was 100 to 1000 nM.
The molecule `Fc1ccc(-c2ccc(F)cc2Oc2ccc3nnc(Cl)n3n2)cc1` [Cpd.4-31, 6-(4′-fluoro-4-fluoro-biphenyl-2-yloxy)-3-chloro-[1,2,4]triazolo[4,3-b]pyridazine] displayed a melting point of 129.7 °C. Moreover, the EC50 on Rev-Erb alpha is 100 to 1000 nM.
Take `Oc1ccc(Oc2ccc3nnc(Cl)n3n2)c(-c2ccccc2)c1` [Cpd.4-32, 6-(5-hydroxy-biphenyl-2-yloxy)-3-chloro-[1,2,4]triazolo[4,3-b]pyridazine]: the melting point stood at 267.7 °C. Also, on Rev-Erb alpha, the EC50 was 1000 to 6000 nM.
`FC(F)(F)c1ccc(-c2ccccc2)c(Oc2ccc3nnc(Cl)n3n2)c1` [Cpd.4-33, 6-(4-trifluoromethyl-biphenyl-2-yloxy)-3-chloro-[1,2,4]triazolo[4,3-b]pyridazine] displayed a melting point of 138.9 °C. On Rev-Erb alpha, this molecule yielded a 50% effective concentration (EC50) of less than 100 nM.
For `COc1ccc(-c2ccc(F)cc2)c(Oc2ccc3nnc(Cl)n3n2)c1` [Cpd.4-34, 6-(4′-fluoro-4-methoxy-biphenyl-2-yloxy)-3-chloro-[1,2,4]triazolo[4,3-b]pyridazine], the melting point is 171.7 °C. Also, at Rev-Erb alpha, the EC50 is 100 to 1000 nM.
For the molecule `Clc1ccc(Oc2ccc3nnc(Cl)n3n2)c(-c2ccccc2)c1` [Cpd.4-35, 6-(5-chloro-biphenyl-2-yloxy)-3-chloro-[1,2,4]triazolo[4,3-b]pyridazine], the melting point was 166.2 °C. The EC50 on Rev-Erb alpha lay in the range of 100 to 1000 nM.
As for `FC(F)(F)c1ccc(-c2ccccc2)c(Oc2ccc3nnc(C(F)(F)F)n3n2)c1` [Cpd.4-38, 6-(4-trifluoromethyl-biphenyl-2-yloxy)-3-(trifluoromethyl)-[1,2,4]triazolo[4,3-b]pyridazine], the melting point amounted to 150 °C. The molecule also yielded a half-maximal effective concentration (EC50) on Rev-Erb alpha of 100 to 1000 nM.
`CN(C)Cc1ccc(-c2ccccc2)c(Oc2ccc3nnc(Cl)n3n2)c1` [Cpd.4-41, 3-chloro-6-(4-N,N-dimethylaminomethyl-biphenyl-2-yloxy)-[1,2,4]triazolo[4,3-b]pyridazine] had a melting point of 141 to 144 °C. The molecule further showed a half-maximal effective concentration (EC50) on Rev-Erb alpha of 1000 to 6000 nM.
In the same order, the values of `CNc1ccc(Oc2ccc3nnc(Cl)n3n2)c(-c2ccccc2)c1` [Cpd.4-47, 3-chloro-6-(5-methylamino-biphenyl-2-yloxy)-[1,2,4]triazolo[4,3-b]pyridazine] are 157 to 158 °C and less than 100 nM.
In turn, `CCCCNc1ccc(-c2ccccc2)c(Oc2ccc3nnc(Cl)n3n2)c1` [Cpd.4-50, 3-chloro-6-(4-N-butylamino-biphenyl-2-yloxy)-[1,2,4]triazolo[4,3-b]pyridazine] had a melting point of 132 to 135 °C. On Rev-Erb alpha, this molecule came in with a half-maximal effective concentration (EC50) of 100 to 1000 nM.
On to `CC(C)CNc1ccc(-c2ccccc2)c(Oc2ccc3nnc(Cl)n3n2)c1` [Cpd.4-51, 3-chloro-6-(4-N-2-methylpropylamino-biphenyl-2-yloxy)-[1,2,4]triazolo[4,3-b]pyridazine], for which the melting point lay in the range of 124 to 128 °C. The molecule also showed a concentration for a half-maximal effect (EC50) on Rev-Erb alpha of 100 to 1000 nM.
`CCCN(CCC)c1ccc(Oc2ccc3nnc(Cl)n3n2)c(-c2ccccc2)c1` [Cpd.4-53, 3-chloro-6-(5-dipropylamino-biphenyl-2-yloxy)-[1,2,4]triazolo[4,3-b]pyridazine]: the melting point is 106 to 109 °C. This molecule also showed an EC50 at Rev-Erb alpha of 100 to 1000 nM.
The molecule `CCN(CC)c1ccc(Oc2ccc3nnc(Cl)n3n2)c(-c2ccccc2)c1` [Cpd.4-55, 3-chloro-6-(5-diethylamino-biphenyl-2-yloxy)-[1,2,4]triazolo[4,3-b]pyridazine] showed a melting point of 55 to 58 °C. The EC50 on Rev-Erb alpha is less than 100 nM.
Taken in the same sequence, the figures for `CCCNc1ccc(Oc2ccc3nnc(Cl)n3n2)c(-c2ccccc2)c1` [Cpd.4-56, 3-chloro-6-(5-propylamino-biphenyl-2-yloxy)-[1,2,4]triazolo[4,3-b]pyridazine] were 55 to 58 °C and 100 to 1000 nM.
As for `CN(Cc1ccccc1)Cc1ccc(-c2ccccc2)c(Oc2ccc3nnc(Cl)n3n2)c1` [Cpd.4-60, 3-chloro-6-(4-N-methyl-N-benzylaminomethyl-biphenyl-2-yloxy)-[1,2,4]triazolo[4,3-b]pyridazine], the melting point fell in the range of 119 to 122 °C. Further, the EC50 at Rev-Erb alpha was 100 to 1000 nM.
On to `Clc1nnc2ccc(Oc3cc(CN4CCOCC4)ccc3-c3ccccc3)nn12` [Cpd.4-64, 3-chloro-6-(4-morpholinomethyl-biphenyl-2-yloxy)-[1,2,4]triazolo[4,3-b]pyridazine], for which the melting point lay within 162 to 163 °C. On Rev-Erb alpha, the concentration giving a half-maximal response (EC50) fell in the range of 1000 to 6000 nM.
The molecule `CC(C)CNc1ccc(Oc2ccc3nnc(Cl)n3n2)c(-c2ccccc2)c1` [Cpd.4-67, 3-chloro-6-(5-isobutylamino-biphenyl-2-yloxy)-[1,2,4]triazolo[4,3-b]pyridazine] yielded a melting point of 62 to 67 °C. Also, the concentration for a half-maximal effect (EC50) on Rev-Erb alpha was less than 100 nM.
Taken in the same sequence, the figures for `FC(F)(F)Oc1ccc(-c2ccccc2)c(Oc2ccc3nnc(Cl)n3n2)c1` [Cpd.4-68, 3-chloro-6-(4-trifluoromethyloxy-biphenyl-2-yloxy)-[1,2,4]triazolo[4,3-b]pyridazine] were 225.4 to 228.2 °C and 100 to 1000 nM.
`NC(=O)c1ccc(Oc2ccc3nnc(Cl)n3n2)c(-c2ccccc2)c1` [Cpd.4-70, 3-chloro-6-(5-aminocarbonyl-biphenyl-2-yloxy)-[1,2,4]triazolo[4,3-b]pyridazine] displayed a melting point of 196.5 to 198.4 °C. Besides, the EC50 at Rev-Erb alpha was greater than 6000 nM. In addition, the Emax on Rev-Erb alpha (relative to DMSO, at the tested dose, read-out: TOP activation) was greater than 130%.
In turn, `Oc1cccc(-c2cc(F)ccc2Oc2ccc3nnc(Cl)n3n2)c1` [Cpd.4-77, 3-chloro-6-(5-fluoro-3′-hydroxy-biphenyl-2-yloxy)-[1,2,4]triazolo[4,3-b]pyridazine] had a melting point of 241.3 to 244.5 °C. This molecule came in with a concentration for a half-maximal effect (EC50) at Rev-Erb alpha of 1000 to 6000 nM.
Taken in the same sequence, the figures for `FC(F)(F)c1ccc(-c2ccc(Cl)nc2)c(Oc2ccc3nnc(Cl)n3n2)c1` [Cpd.4-101, 3-chloro-6-(2-(6-chloropyridin-3-yl)-5-(trifluoromethyl)phenoxy)-[1,2,4]triazolo[4,3-b]pyridazine] were 198 to 200 °C and 100 to 1000 nM.
`COc1ccc(-c2cccc(C(F)(F)F)c2)c(Oc2ccc3nnc(Cl)n3n2)c1` [Cpd.4-113, 3-chloro-6-{[4-methoxy-3′-(trifluoromethyl)biphenyl-2-yl]oxy}-[1,2,4]triazolo[4,3-b]pyridazine] had a melting point of 111.6 °C. For the same molecule, the EC50 on Rev-Erb alpha lay in the range of 100 to 1000 nM.
`Fc1ccc(Oc2ccc3nnc(Cl)n3n2)c(-c2ccc(F)c(F)c2)c1` [Cpd.4-115, 3-chloro-6-(5,3′,4′-trifluorobiphenyl-2-yloxy)-[1,2,4]triazolo[4,3-b]pyridazine] gave a melting point of 147.8 °C. The EC50 at Rev-Erb alpha lay within 100 to 1000 nM.
`Fc1ccc(-c2cc(F)ccc2Oc2ccc3nnc(Cl)n3n2)cc1` [Cpd.4-116, 3-chloro-6-(5,4′-difluorobiphenyl-2-yloxy)-[1,2,4]triazolo[4,3-b]pyridazine] came in with a melting point of 141.1 °C. At Rev-Erb alpha, the EC50 fell in the range of 100 to 1000 nM.
For the molecule `Clc1ccc(-c2ccccc2Oc2ccc3nnc(Cl)n3n2)cc1` [Cpd.4-117, 3-chloro-6-(4′-chlorobiphenyl-2-yloxy)-[1,2,4]triazolo[4,3-b]pyridazine], the melting point turned out to be 173 °C. Further, at Rev-Erb alpha, the EC50 is 100 to 1000 nM.
Take `Fc1ccc(Oc2ccc3nnc(Cl)n3n2)c(-c2ccc(Cl)cc2)c1` [Cpd.4-118, 3-chloro-6-(4′-chloro-5-fluorobiphenyl-2-yloxy)-[1,2,4]triazolo[4,3-b]pyridazine]: the melting point was 172 °C. In addition, the concentration for a half-maximal effect (EC50) on Rev-Erb alpha was in the range of 100 to 1000 nM.
As for `Nc1cccc(-c2cc(F)ccc2Oc2ccc3nnc(Cl)n3n2)c1` [Cpd.4-119, 3-chloro-6-(3′-amino-5-fluorobiphenyl-2-yloxy)-[1,2,4]triazolo[4,3-b]pyridazine], the melting point is 248.2 °C. Besides, the concentration for a half-maximal effect (EC50) at Rev-Erb alpha is 1000 to 6000 nM.
In the same order, the values of `Fc1cccc(-c2cc(F)ccc2Oc2ccc3nnc(Cl)n3n2)c1` [Cpd.4-120, 3-chloro-6-(3′,5-difluorobiphenyl-2-yloxy)-[1,2,4]triazolo[4,3-b]pyridazine] are 106.2 °C and 100 to 1000 nM.
`FC(F)(F)c1ccc(CN2CCOCC2)c(Oc2ccc3nnc(Cl)n3n2)c1` [Cpd.4-122, 3-chloro-6-(2-(morpholinomethyl)-5-(trifluoromethyl)phenoxy)-[1,2,4]triazolo[4,3-b]pyridazine]: the melting point lay in the range of 55 to 58 °C. Moreover, at Rev-Erb alpha, the EC50 fell in the range of 1000 to 6000 nM.
